Source: US11878973B2, “Bicyclic compounds and their uses” (NOVARTIS AG, priority 2021, dated 2024)

Assays:
DLD1-WRN-KO cells = experiment: Proliferation assay DLD1-WRN-KO (CellTiterGlo, 96 hours; off-target effects); settings: Homo sapiens, read-out: Proliferation Assay DLD1-WRN-KO (GI50)
Description: The WRN-knockdown insensitive colon carcinoma cell line DLD-1 (RRID: CVCL_0248) was obtained from the Korean Cell Line Bank (KCLB), and used to generate a derivative in which the endogenous WRN gene copies were knocked out by CRISPR-mediated editing using standard CRISPR methods. The resulting cell line, DLD1-WRN—KO, was used to assess potential off-target compound effects.
All cells were maintained at 37° C. in a humidified 5% CO2 incubator.
For data analysis, the assay background signal that was determined in wells containing medium, but no cells, was subtracted from all other data points prior to further calculations. The extent of growth inhibition and potential cell kill was assessed by comparing the ATP levels (measured using CellTiterGlo, Promega) in compound-treated cells with those present at the time of compound addition. […] 100%, 0% and −100% signify absence of growth inhibition, growth stasis, and complete cell kill, respectively. Compound concentrations leading to half-maximal growth inhibition (G150) and residual cell viability at the highest tested compound concentration (Data (cmax), expressed in percent) were routinely calculated. Data analysis can also be carried out using commercially available software designed to derive IC50 values using 4-parameter fits (e.g. GraphPad Prism, XL fit). The reported GI50 values are the geometrical means of at least 2 independent replicates.

WRN helicase = WRN helicase (Homo sapiens (Human), UniProt Q14191); experiment: In vitro enzymatic activity assay on WRN helicase (DNA dependent ATPase assay, ADP-Glo); type: biochemical; settings: geometric means of at least 2 determinations; read-out: WRN ATPase Activity (IC50)
Text: An ATPase assay was set up to measure the DNA dependent ATP hydrolysis activity of WRN helicase. This assay was used also to assess the inhibition properties of compounds of the invention on DNA dependent WRN ATPase activity.
The core helicase motif of the WRN protein (aa N517-P1238) was produced for this assay (protein production as described above). […] The ADP-Glo assay kit (Promega, Madison, WI) allowing the quantification of ADP produced in ATP hydrolysis reactions was used for setting up this assay.
Time course experiments were first performed in order to determine the best enzymatic assay conditions (including buffer conditions, reaction time and concentrations of protein, ATP and DNA substrates). A typical reaction consists of 10 nM WRN protein, 0.2 nM FLAP26, and 300 micromolar ATP in the following assay buffer: 30 mM Tris pH7.5, 2 mM MgCl2, 0.02% BSA, 50 mM NaCl, 0.1% pluronic F127 prepared in DNAse free water. To evaluate the inhibition properties of compounds of the invention, serial dilutions were prepared in DMSO (10 half log dilutions from a 10 mM DMSO solution). […] The reaction was started by addition of 2.5 microliters of FLAP26 at 0.4 nM and incubated for 30 minutes at room temperature. The reaction was stopped with the addition of 5 microliters of the first ADP-Glo reagent and incubated for one hour to remove the excess amount of ATP. Afterwards, 10 microliters of ATP detection reagent was added and incubated for an additional hour before reading. Luminescence output was recorded using Tecan 1000 reader, with 5 minutes delay before reading. Each concentration of compound was tested in duplicates in the assay plate.
Following normalization of activity values for the wells to % inhibition (% inhibition=[(high control-sample)/(high control-low control)]×100), IC50 fitting was carried out from the duplicate determinations present on each plate according to [4]. Data analysis can also be carried out using commercially available software designed to derive IC50 values using 4-parameter fits (e.g. GraphPad Prism, XL fit). The reported IC50 values are the geometrical means of at least 2 independent replicates.

SW48 cells = experiment: Proliferation assay SW48 (CellTiterGlo, 96 hours); settings: Homo sapiens, SW48, read-out: Proliferation Assay SW48 (GI50)

Chain of WRN helicase (Q14191 517-1238): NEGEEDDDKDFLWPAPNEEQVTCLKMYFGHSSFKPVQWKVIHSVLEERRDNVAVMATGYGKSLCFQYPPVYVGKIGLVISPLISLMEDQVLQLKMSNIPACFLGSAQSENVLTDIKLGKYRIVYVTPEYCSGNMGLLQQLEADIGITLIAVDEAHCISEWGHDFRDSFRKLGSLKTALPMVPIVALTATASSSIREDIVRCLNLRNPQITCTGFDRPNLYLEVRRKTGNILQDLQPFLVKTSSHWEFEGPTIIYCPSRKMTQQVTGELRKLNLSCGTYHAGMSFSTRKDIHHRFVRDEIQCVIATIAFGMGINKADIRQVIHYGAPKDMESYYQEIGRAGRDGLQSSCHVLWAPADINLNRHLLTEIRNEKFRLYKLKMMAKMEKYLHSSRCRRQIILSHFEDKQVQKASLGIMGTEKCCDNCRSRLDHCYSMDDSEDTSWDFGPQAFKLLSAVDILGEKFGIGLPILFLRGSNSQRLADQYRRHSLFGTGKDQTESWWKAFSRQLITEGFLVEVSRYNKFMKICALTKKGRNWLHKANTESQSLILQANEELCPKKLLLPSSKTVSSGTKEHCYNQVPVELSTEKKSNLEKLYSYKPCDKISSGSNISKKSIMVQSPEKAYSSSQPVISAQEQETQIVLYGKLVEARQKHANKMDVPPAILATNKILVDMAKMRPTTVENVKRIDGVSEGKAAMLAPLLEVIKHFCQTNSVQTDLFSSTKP

| Structure (SMILES) | GI50 (DLD1-WRN-KO cells) [µM] | IC50 (WRN helicase) [µM] | GI50 (SW48 cells) [µM] |
| --- | --- | --- | --- |
| CCc1c(N2CCN(C(=O)c3nccc(Cl)c3O)CC2)c(=O)n2nc(N3CCC[C@H](F)C3)nc2n1CC(=O)Nc1ccc(C(F)(F)F)cc1C [Example 85, (S)-2-(6-(4-(4-chloro-3-hydroxypicolinoyl)piperazin-1-yl)-5-ethyl-2-(3-fluoropiperidin-1-yl)-7-oxo-[1,2,4]triazolo[1,5-a]pyrimidin-4(7H)-yl)-N-(2-methyl-4-(trifluoromethyl)phenyl)acetamide] | > 10 | 0.07 | 0.11 |
| Cc1nc(C(F)(F)F)ccc1NC(=O)Cn1c(C)c(N2CCN(C(=O)c3ncccc3O)CC2)c(=O)n2nc(C3=CCOCC3)nc12 [Example 129, 2-(2-(3,6-dihydro-2H-pyran-4-yl)-6-(4-(3-hydroxypicolinoyl)piperazin-1-yl)-5-methyl-7-oxo-[1,2,4]triazolo[1,5-a]pyrimidin-4(7H)-yl)-N-(2-methyl-6-(trifluoromethyl)pyridin-3-yl)acetamide] | > 10 | 0.5 | 2.55 |
| CCc1c(N2CCN(C(=O)c3ncccc3O)CC2)c(=O)n2nc(C3=CC(=O)OCC3)nc2n1CC(=O)Nc1ccc(C(F)(F)F)cc1C [Example 60, 2-(5-ethyl-6-(4-(3-hydroxypicolinoyl)piperazin-1-yl)-7-oxo-2-(6-oxo-3,6-dihydro-2H-pyran-4-yl)-[1,2,4]triazolo[1,5-a]pyrimidin-4(7H)-yl)-N-(2-methyl-4-(trifluoromethyl)phenyl)acetamide] | > 10 | 0.24 | 0.88 |
| CCc1c(N2CCN(C(=O)c3ncnc(C)c3O)CC2)c(=O)n2nc(C3=CCOCC3)nc2n1CC(=O)Nc1cc(F)c(C(F)F)cc1C [Example 53, N-(4-(difluoromethyl)-5-fluoro-2-methylphenyl)-2-(2-(3,6-dihydro-2H-pyran-4-yl)-5-ethyl-6-(4-(5-hydroxy-6-methylpyrimidine-4-carbonyl)piperazin-1-yl)-7-oxo-[1,2,4]triazolo[1,5-a]pyrimidin-4(7H)-yl)acetamide] | > 10 | 0.12 | 0.14 |
| CCc1c(N2CCN(C(=O)c3ncccc3O)CC2)c(=O)n2nc(C3=CCOCC3)nc2n1CC(=O)Nc1cc(F)c(C(F)(F)F)cc1C [Example 94, 2-(2-(3,6-dihydro-2H-pyran-4-yl)-5-ethyl-6-(4-(3-hydroxypicolinoyl)piperazin-1-yl)-7-oxo-[1,2,4]triazolo[1,5-a]pyrimidin-4(7H)-yl)-N-(5-fluoro-2-methyl-4-(trifluoromethyl)phenyl)acetamide] | > 10 | 0.04 | 0.05 |
| CCc1c(N2CCN(C(=O)c3ncccc3O)CC2)c(=O)n2nc(C3=CCCCO3)nc2n1CC(=O)Nc1ccc(C(F)(F)F)cc1Cl [Example 32, N-(2-chloro-4-(trifluoromethyl)phenyl)-2-(2-(3,4-dihydro-2H-pyran-6-yl)-5-ethyl-6-(4-(3-hydroxypicolinoyl)piperazin-1-yl)-7-oxo-[1,2,4]triazolo[1,5-a]pyrimidin-4(7H)-yl)acetamide] | 7.6 | 0.06 | 0.06 |
| CCc1c(N2CCN(C(=O)c3ncccc3O)CC2)c(=O)n2nc(N3CCC[C@H](F)C3)nc2n1CC(=O)Nc1ccc(C(F)(F)F)nc1Cl [Example 16b, (S)—N-(2-chloro-6-(trifluoromethyl)pyridin-3-yl)-2-(5-ethyl-2-(3-fluoropiperidin-1-yl)-6-(4-(3-hydroxypicolinoyl)piperazin-1-yl)-7-oxo-[1,2,4]triazolo[1,5-a]pyrimidin-4(7H)-yl)acetamide] | > 10 | 0.18 | 0.23 |
| CCc1c(N2CCN(C(=O)c3ncccc3O)CC2)c(=O)n2nc(C3=CCCCO3)nc2n1CC(=O)Nc1ccc(C(F)(F)F)nc1Cl [Example 29, N-(2-chloro-6-(trifluoromethyl)pyridin-3-yl)-2-(2-(3,4-dihydro-2H-pyran-6-yl)-5-ethyl-6-(4-(3-hydroxypicolinoyl)piperazin-1-yl)-7-oxo-[1,2,4]triazolo[1,5-a]pyrimidin-4(7H)-yl)acetamide] | > 10 | 0.09 | 0.05 |
| CCc1c(N2CCN(C(=O)c3ncccc3O)CC2)c(=O)n2nc(C3=CCC(F)CN3)nc2n1CC(=O)Nc1ccc(C(F)(F)F)cc1C (racemic) [Example 111, rac-2-(5-ethyl-2-(5-fluoro-1,4,5,6-tetrahydropyridin-2-yl)-6-(4-(3-hydroxypicolinoyl)piperazin-1-yl)-7-oxo-[1,2,4]triazolo[1,5-a]pyrimidin-4(7H)-yl)-N-(2-methyl-4-(trifluoromethyl)phenyl)acetamide] | > 10 | 0.33 | 1.12 |
| CCc1c(N2CCN(C(=O)c3ncnc(C)c3O)[C@@H](C)[C@@H]2C)c(=O)n2nc(C3=CCOCC3)nc2n1CC(=O)Nc1ccc(C(F)(F)F)cc1Cl [Example 120, N-(2-chloro-4-(trifluoromethyl)phenyl)-2-(2-(3,6-dihydro-2H-pyran-4-yl)-5-ethyl-6-((2S,3S)-4-(5-hydroxy-6-methylpyrimidine-4-carbonyl)-2,3-dimethylpiperazin-1-yl)-7-oxo-[1,2,4]triazolo[1,5-a]pyrimidin-4(7H)-yl)acetamide] | > 10 | 0.47 | 0.93 |
| CCc1c(N2CCN(C(=O)c3ncccc3O)CC2)c(=O)n2nc(N3CCOCC3)nc2n1CC(=O)Nc1ccc(C(F)(F)F)cc1F [Example 11, 2-(5-ethyl-6-(4-(3-hydroxypicolinoyl)piperazin-1-yl)-2-morpholino-7-oxo-[1,2,4]triazolo[1,5-a]pyrimidin-4(7H)-yl)-N-(2-fluoro-4-(trifluoromethyl)phenyl)acetamide] | > 10 | 0.11 | 0.38 |
| CCc1c(N2CCN(C(=O)c3ncnc(C)c3O)CC2)c(=O)n2nc(C3=CCOCC3)nc2n1CC(=O)Nc1ccc(C(F)(F)F)nc1Cl [Example 47, N-(2-chloro-6-(trifluoromethyl)pyridin-3-yl)-2-(2-(3,6-dihydro-2H-pyran-4-yl)-5-ethyl-6-(4-(5-hydroxy-6-methylpyrimidine-4-carbonyl)piperazin-1-yl)-7-oxo-[1,2,4]triazolo[1,5-a]pyrimidin-4(7H)-yl)acetamide] | > 10 | 0.14 | 0.17 |
| CCc1c(N2CCN(C(=O)c3ncnc(C)c3O)CC2)c(=O)n2nc(C3=CCOCC3)nc2n1CC(=O)Nc1cc(F)c(C(F)(F)F)cc1C [Example 50, 2-(2-(3,6-dihydro-2H-pyran-4-yl)-5-ethyl-6-(4-(5-hydroxy-6-methylpyrimidine-4-carbonyl)piperazin-1-yl)-7-oxo-[1,2,4]triazolo[1,5-a]pyrimidin-4(7H)-yl)-N-(5-fluoro-2-methyl-4-(trifluoromethyl)phenyl)acetamide] | > 10 | 0.03 | 0.05 |
| CCc1c(N2CCN(C(=O)c3ncnc(C)c3O)CC2)c(=O)n2nc(C3=CCOCC3)nc2n1CC(=O)Nc1ccc(C(F)(F)F)cc1 [Example 73, 2-(2-(3,6-dihydro-2H-pyran-4-yl)-5-ethyl-6-(4-(5-hydroxy-6-methylpyrimidine-4-carbonyl)piperazin-1-yl)-7-oxo-[1,2,4]triazolo[1,5-a]pyrimidin-4(7H)-yl)-N-(4-(trifluoromethyl)phenyl)acetamide] | > 10 | 0.07 | 0.2 |
| Cc1cc(C(F)(F)F)ccc1NC(=O)Cn1c(CCO)c(N2CCN(C(=O)c3ncccc3O)CC2)c(=O)n2nc(C3=CCOCC3)nc12 [Example 135, 2-(2-(3,6-dihydro-2H-pyran-4-yl)-5-(2-hydroxyethyl)-6-(4-(3-hydroxypicolinoyl)piperazin-1-yl)-7-oxo-[1,2,4]triazolo[1,5-a]pyrimidin-4(7H)-yl)-N-(2-methyl-4-(trifluoromethyl)phenyl)acetamide] | > 10 | 0.13 | 0.28 |
| Cc1c(N2CCN(C(=O)c3ncccc3O)CC2)c(=O)n2nc(C3=CCOCC3)nc2n1CC(=O)Nc1ccc(C(F)(F)F)cc1 [Example 117, 2-(2-(3,6-dihydro-2H-pyran-4-yl)-6-(4-(3-hydroxypicolinoyl)piperazin-1-yl)-5-methyl-7-oxo-[1,2,4]triazolo[1,5-a]pyrimidin-4(7H)-yl)-N-(4-(trifluoromethyl)phenyl)acetamide] | > 10 | 0.04 | 0.26 |
